Results: paper PMC5997364, “OG716: Designing a fit-for-purpose lantibiotic for the treatment of Clostridium difficile infections” (PLoS ONE, 2018)
Converted amounts (≈) assume the structure as drawn. “And” between values parts separate entries of the source, which are not always exact repeats. Equal entries are not always repeated. Where two headings read alike, the source gives them in different places. Ends that are not written are not given here.

Key:
[1] = Solubility 5% D-mannitol, 5% D-mannitol in water, visual assessment
Protocol: (§1) To that end, approximately 10 mg of each compound was weighed on a high-precision balance and dispensed into a 1.5 mL microfuge tube.

C. difficile [2] = assay: microbe, parasite or virus in culture; assay type: cell-based, Clostridium difficile
Protocol: MIC testing for C. difficile was performed by Eurofins Panlabs Taiwan LTD based on modifications from the CLSI M11-A8 broth dilution method for Bacteroides fragilis susceptibility testing. Briefly, Reinforced Clostridial Medium (RCM) was pre-reduced by over-night incubation in an anaerobic chamber (80% N2, 10% CO2, and 10% H2) prior to use. MU1140 and variants were dissolved in 100% DMSO, diluted by 2-fold serial dilution in 100% DMSO, for a total of 11 concentrations. A 4 μL aliquot of each dilution was added to 96 μL RCM in wells of a 96 well plate using a Biomek FX instrument (Beckman Coulter, USA), followed by the addition of C. difficile suspension, in RCM, 100 μL/well. The final bacterial count was 2 x 10^5 to 1 x 10^6 colony forming units/mL, in 200 μL per assay well. […] Assay plates were incubated at 35°C for 46 to 48 hr in the anaerobic chamber (A35 Anaerobic Workstation, Don Whitley, UK). Following incubation, test plates were visually examined and each well was scored for growth then the MIC was recorded as the lowest concentration that results in complete inhibition of growth. Each test substance was evaluated in duplicate. Vehicle-control and vancomycin were used as blank and positive controls, respectively. The MIC values of the vancomycin controls were consistent with the historical data against test strains (data not shown).

[3] = 5% D-mannitol
Protocol: as §1

[4] = 1.0 mg/mL in water
Protocol: Five aliquots of each compound were prepared by dissolving them to 1.0 mg/mL in HPLC grade water (Fisher Scientific, USA). A total of 2 aliquots of the solution were placed in a 37°C stability chamber, and 2 aliquots were placed in a 50°C chamber. Samples were collected on days 0, 2 and 7, centrifuged at 12,000 x g for 5 min, and the supernatants were transferred to a fresh tube. Each sample was diluted 1:4 with 0.05% trifluoroacetic acid (TFA) and the purity and quantity were analyzed by HPLC as described above.

[5] = FaSSIF with trypsin/chymotrypsin
Protocol: FaSSIF was supplemented with 2% pancreatin (w/v), 6 μg/mL of trypsin and 6 μg/mL of α-chymotrypsin and was prepared as previously reported [22]. All proteases were from Fisher ScientificSamples were collected at the same frequency as in the FaSSGF study, and analyzed using the same method.

C. difficile UNT103-1 = assay: Golden Syrian hamster model of CDAD, oral gavage efficacy; assay type: in vivo
Protocol: In vivo efficacy was performed as previously described in detail, except that the compounds were administered via oral gavage (rather than the illeal cannulation method used previously). This study was carried out in accordance with protocols 2016–0015 approved by the Institutional Animal Care and Use Committee (IACUC) at the University of North Texas Health Science Center (UNTHSC). IACUC established guidelines ensuring that approved protocols are in compliance with federal and state laws regarding animal care and use activity at UNTHSC. The UNTHSC animal program in USDA registered (74-R0081) and fully AAALAC accredited.
Briefly, 7–8 weeks old Male Golden Syrian hamsters were used in this study, and weighted 100–120 g (Charles River Laboratories, Wilmington, MA). C. difficile UNT103-1 (VA11, non epidemic (cdtB-, REA group J) was received from Curtis Donskey, Cleveland VA Hospital, Cleveland, OH) and cultured as previously described. The isolate has been previously utilized for the hamster model by the University of North Texas Health Sciences Center (UNTHSC). The infection inoculum was tested to determine the ratio of spores to vegetative cells. In accordance with the details in Table 2, a total of 60 animals were used in this study. Animals were randomized into the 10 study groups (N = 6 per group) prior to treatment. On Day 0, animals were infected with 5.63 x 10^7 total CFU of which 2.81 x 10^4 represented inoculated spores. On Day 1, at 24 hrs post-infection, all animals received a single subcutaneous injection of clindamycin (10 mg/kg). Test articles in 5% mannitol were then administered orally 3x per day (TID), starting on Day 2 at 18 hours after clindamycin injection, for 5 consecutive days (Days 2 through 6). USP-grade vancomycin (positive control) was prepared in water for injection (WFI) at 50 mg/mL and stored refrigerated during the course of the study. […] Data was analyzed using GraphPad Prism 6.0d. […]

[6] = parameters: method as in earlier work; conditions: cited from earlier work
C. difficile [7] = system: C. difficile; parameters: method as in PMID 20974818; conditions: cited from earlier work
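For Forced degradation Δ Conc in this document: purity and concentration determined by HPLC on aqueous solutions kept in a stability chamber, with samples analyzed at day 0 and after incubation.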
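For Forced degradation Δ Purity in this document: purity and concentration determined by HPLC on aqueous solutions kept in a stability chamber, with samples analyzed at day 0 and after incubation.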

Molecule	solubility [1] [µg/mL]	MIC 50 (C. difficile [2]) [µg/mL]	MIC 90 (C. difficile [2]) [µg/mL]	MIC Mode (C. difficile [2]) [µg/mL]	MIC Range (C. difficile [2]) [µg/mL]	Minimum Inhibitory Concentration C. difficile 103-1 (C. difficile [2]) [µg/mL]	Minimum Inhibitory Concentration C. difficile 107-1 (C. difficile [2]) [µg/mL]	Minimum Inhibitory Concentration C. difficile ATCC 9689 (C. difficile [2]) [µg/mL]	Minimum Inhibitory Concentration C. difficile ATCC 43597 (C. difficile [2]) [µg/mL]	Minimum Inhibitory Concentration C. difficile ATCC BAA-1805 (C. difficile [2]) [µg/mL]	Minimum Inhibitory Concentration C. difficile ATCC BAA-1808 (C. difficile [2]) [µg/mL]	Minimum Inhibitory Concentration C. difficile ATCC BAA-1874 (C. difficile [2]) [µg/mL]	Minimum Inhibitory Concentration C. difficile ATCC BAA-1875 (C. difficile [2]) [µg/mL]	Forced degradation Δ Conc ([4]; 2 Days at 37°C)	Forced degradation Δ Purity ([4]; 2 Days at 37°C) [%]	Forced degradation Δ Conc ([4]; 2 Days at +50°C)	Forced degradation Δ Purity ([4]; 2 Days at +50°C) [%]	Forced degradation Δ Conc ([4]; 7 Days at 37°C)	Forced degradation Δ Purity ([4]; 7 Days at 37°C) [%]	Forced degradation Δ Conc ([4]; 7 Days at +50°C)	also measured
C=C1NC(=O)[C@H](Cc2c[nH]c3ccccc23)NC(=O)[C@H](NC(=O)[C@H](CCCCN)NC(=O)[C@@H](N)[C@@H](C)CC)CSC[C@@H](C(=O)N[C@H]2C(=O)N3CCC[C@H]3C(=O)NCC(=O)N[C@H](C(=O)N[C@@H](C)C(=O)N[C@@H](CC(=O)O)C(=O)N/C(=C\C)C(=O)NCC(=O)N[C@@H]3CSC[C@@H]4NC(=O)[C@H](Cc5ccc(O)cc5)NC(=O)[C@@H](CS/C=C\NC4=O)NC(=O)[C@H](CC(N)=O)NC(=O)[C@H](Cc4ccccc4)NC3=O)CS[C@H]2C)NC(=O)[C@H](CC(C)C)NC1=O [OG703]	7000 (≈ 3200 µM)	1 (≈ 0.457 µM)	2 (≈ 0.913 µM)	1 (≈ 0.457 µM)	0.5 to 2	0.5	2	2	1	1	1	0.5	1	-9.2% and -9%	-0.97	-15%	-1.74	-13.4% and -13%	-1.04	-30.3% and -30%	solubility reduced relative to OG706 [3]: 2-3 fold; Forced degradation Δ Purity ([4]; 7 Days at +50°C): -4.79%
C=C1NC(=O)[C@H](Cc2c[nH]c3ccccc23)NC(=O)[C@H](NC(=O)[C@H](CCCCN)NC(=O)[C@@H](N)[C@@H](C)CC)CSC[C@@H](C(=O)N[C@H]2C(=O)N3CCC[C@H]3C(=O)NCC(=O)N[C@H](C(=O)N[C@@H](C)C(=O)N[C@@H](C)C(=O)N/C(=C\C)C(=O)NCC(=O)N[C@@H]3CSC[C@@H]4NC(=O)[C@H](Cc5ccc(O)cc5)NC(=O)[C@@H](CS/C=C\NC4=O)NC(=O)[C@H](CC(N)=O)NC(=O)[C@H](Cc4ccccc4)NC3=O)CS[C@H]2C)NC(=O)[C@H](CC(C)C)NC1=O [OG711]	12000 to 18000 (≈ 5590 to 8390 µM)	0.5 (≈ 0.233 µM)	1 (≈ 0.466 µM)	0.25 (≈ 0.117 µM)	0.25 to 1	0.25	1	1	0.5	0.25	0.25	0.5	0.5	-12.5% and -13%	-1.24	-8.7% and -9%	-0.61	-10.8% and -11%	-0.63	-40.1% and -40%	improvement in half-life in FaSSIF (stability to proteolytic degradation) relative to OG253 [5]: > 50 fold; Forced degradation Δ Purity ([4]; 7 Days at +50°C): -2.94%
CN[C@H](CC(C)C)C(=O)N[C@H]1C(=O)N[C@@H](CC(N)=O)C(=O)N[C@H]2C(=O)N[C@H]3C(=O)N[C@H](C(=O)N[C@H](C(=O)O)c4cc(O)cc(O)c4-c4cc3ccc4O)[C@H](O)c3ccc(c(Cl)c3)Oc3cc2cc(c3O[C@@H]2O[C@H](CO)[C@@H](O)[C@H](O)[C@H]2O[C@H]2C[C@](C)(N)[C@H](O)[C@H](C)O2)Oc2ccc(cc2Cl)[C@H]1O [Vancomycin, reference compound]	–	–	–	–	–	–	–	–	–	–	–	–	–	–	–	–	–	–	–	–	Minimum Inhibitory Concentration C. difficile Range (C. difficile [2]; 8 C. difficile strains): 0.5 to 4 mg/mL; MIC 50 (C. difficile [2]; Clostridioides difficile): 0.5 µg/mL (≈ 0.345 µM); MIC 90 (C. difficile [2]; Clostridioides difficile): 4 µg/mL (≈ 2.76 µM); MIC Range (C. difficile [2]; panel of C. difficile strains, n = 8): 0.5 to 4 µg/mL; survival (C. difficile UNT103-1; 20 mg/kg oral gavage x 5 days (test compounds TID, vancomycin QD), outcome of the study (Day 21)): 83%; C. difficile spore count of cecal samples (C. difficile UNT103-1; 20 mg/kg oral gavage x 5 days, cecal contents at death or Day 21): 2.96 log10 CFU/mL; spore counts compared to control (vehicle-treated) animals (C. difficile UNT103-1; cecal contents at death or Day 21): significantly lower
CCc1c(Cl)c(O)c(Cl)c(O)c1C(=O)O[C@H]1[C@H](O)[C@H](OC)[C@H](OC/C2=C\C=C\C[C@H](O)/C(C)=C/[C@H](CC)[C@@H](O[C@@H]3OC(C)(C)[C@@H](OC(=O)C(C)C)[C@H](O)[C@@H]3O)/C(C)=C/C(C)=C/C[C@@H]([C@@H](C)O)OC2=O)O[C@@H]1C [fidaxomycin]	–	–	–	–	–	–	–	–	–	–	–	–	–	–	–	–	–	–	–	–	solubility in water [6]: 12.5 µg/mL (≈ 11.8 µM)
gallidermin (IASKFLCTPGCAKTGSFNSYCC; also: lantibiotic (lanthionine rings and dehydro residues not given here); UniProt P21838 31-52, looked up) [lantibiotic / cationic antimicrobial peptide]	–	–	–	–	–	–	–	–	–	–	–	–	–	–	–	–	–	–	–	–	MIC increase of C. difficile (C. difficile [7]; cpr induction in vitro): 2–4 fold; MIC of C. difficile (C. difficile [7]; level reached after MIC increase (cpr induction)): ~ 1 μg/ml
